What was measured:
[1] = system: calf thymus DNA; assay: Fluorescence emission and enhancement of compounds bound to calf thymus DNA; type: binding; settings: 0.8 μM compound with 500 ng/ml calf thymus DNA in TE buffer; for Emission Max: excited at 488 nm; for Fluorescence Enhancement: emission area 500-715 nm compared to compound 1, defined as 1000-fold
Method: Compounds 1-65 were prepared and their fluorescence absorption and emission characteristics were measured. Intrinsic fluorescence of the compounds only (without DNA) was negligible. Emission spectra for the compounds bound to dsDNA were obtained by incubating 0.8 μM compound with 500 ng/ml calf thymus DNA in TE buffer (10 mM Tris-HCl, pH 7.5, 1 mM EDTA) in a final volume of 3 ml. Measurements were made using PerkinElmer LS 55 (F-11) Fluorescence spectrometer. Samples were excited at 488 nm and fluorescence emission was measured with emission slit widths of 2.5 nm. Absorption maxima were determined according to standard techniques.
Fluorescence enhancement measurements of the compounds were obtained by incubating 0.8 μM compound with 500 ng/ml calf thymus DNA with compounds at a final concentration of 0.8 μM in TE buffer. Compound 1 was used as an internal standard to control for variability (e.g., in excitation light intensity). The area-under-curve of fluorescence emission spectra from 500 nm to 715 nm was calculated, and compared to that of compound 1, which was defined as having 1000-fold fluorescence enhancement relative to fluorescence of the compound alone.

[2] = UV/VIS absorption spectra; type: physicochemical; settings: 10 μM compound in 50 mM potassium phosphate buffer (pH 7.0)
Method: The UV/VIS absorption spectra were obtained with 10 μM compound solution in 50 mM potassium phosphate buffer (pH 7.0) in a final volume of 3 mL. Measurements were carried out using a Lambda 245 spectrophotometer from Perkin Elmer.

Row | SMILES | Emission Max [1] [nm] | Fluorescence Enhancement [1] [fold] | Absorbance Max [2] [nm]
1 | COc1cccc(C[N+](C)(C)CCCN(C)C2=C/C(=C/c3sc4ccccc4[n+]3C)c3ccccc3N2c2ccccc2)c1.[Br-].[I-] [Compound 27] | 521 | 668 | 498
2 | CCCCN(CCCN(C)C)C1=C/C(=C/c2sc3ccccc3[n+]2C)c2ccccc2N1c1ccccc1.[I-] [Compound 8] | 525 | 946 | 495
3 | CCN(CCC[N+](C)(C)C)C1=CC(=Cc2sc3ccccc3[n+]2C)c2ccc(OC)cc2N1c1ccccc1.[I-].[I-] [Compound 49] | 520 | 1035 | 490
4 | CCN(CCC[N+](C)(C)Cc1cccc(OC)c1)C1=C/C(=C/c2sc3ccccc3[n+]2C)c2ccccc2N1c1ccccc1.[Br-].[I-] [Compound 20] | 523 | 871 | 497
5 | CCCN(CCC[N+](C)(C)Cc1ccccc1)C1=C/C(=C\c2sc3ccccc3[n+]2C)c2ccccc2N1c1ccccc1.[Br-].[Cl-] [Compound 6] | 523 | 979 | 502
6 | CCCN(CCC[N+](C)(C)CC)C1=CC(=Cc2sc3ccccc3[n+]2C)c2ccc(OC)cc2N1c1ccccc1.[I-].[I-] [Compound 43] | 519 | 1033 | 494
7 | CCN(CCC[N+](C)(C)CC)C1=CC(=Cc2sc3ccccc3[n+]2C)c2ccc(OC)cc2N1c1ccccc1.[I-].[I-] [Compound 50] | 519 | 1020 | 490
8 | CCC[N+](C)(C)CCN(CC)C1=C/C(=C/c2sc3ccccc3[n+]2C)c2ccc(OC)cc2N1c1ccccc1.[I-].[I-] [Compound 58] | 521 | 874 | 496
9 | CCC[N+](C)(C)CCCN(CC)C1=CC(=Cc2sc3ccccc3[n+]2C)c2ccc(OC)cc2N1c1ccccc1.[I-].[I-] [Compound 51] | 520 | 1016 | 490
10 | CCN(CCN(C)C)C1=C/C(=C/c2sc3ccccc3[n+]2C)c2ccc(OC)cc2N1c1ccccc1.[I-] [Compound 55] | 520 | 908 | 496
11 | CCCCN(CCC[N+](C)(C)C)C1=C/C(=C/c2sc3ccccc3[n+]2C)c2ccccc2N1c1ccccc1.[I-].[I-] [Compound 9] | 525 | 908 | 496
12 | CCN(CC[N+](C)(C)Cc1ccccc1)C1=C/C(=C/c2sc3ccccc3[n+]2C)c2ccc(OC)cc2N1c1ccccc1.[I-].[I-] [Compound 60] | 522 | 878 | 500
13 | CCCN(CCC[N+](C)(C)CCC)C1=C/C(=C/c2sc3ccccc3[n+]2C)c2ccccc2N1c1ccccc1.[I-].[I-] [Compound 4] | 524 | 925 | 501
14 | CCN(CC[N+](C)(C)CC)C1=C/C(=C/c2sc3ccccc3[n+]2C)c2ccccc2N1c1ccccc1.[Cl-].[I-] [Compound 30] | 526 | 638 | 506
15 | CCN(CC[N+](C)(C)CCO)C1=C/C(=C\c2sc3ccccc3[n+]2C)c2ccc(OC)cc2N1c1ccccc1.[I-].[I-] [Compound 59] | 520 | 863 | 498
16 | CCCN(CCC[N+](C)(C)Cc1cccc(OC)c1)C1=CC(=Cc2sc3ccccc3[n+]2C)c2ccc(OC)cc2N1c1ccccc1.[Br-].[I-] [Compound 47] | 518 | 1038 | 495
17 | CCN(CC[N+](C)(C)Cc1ccccc1)C1=C/C(=C/c2sc3ccccc3[n+]2C)c2ccccc2N1c1ccccc1.[Br-].[I-] [Compound 32] | 527 | 672 | 507
18 | CCN(CCCN(C)C)C1=C/C(=C/c2sc3ccccc3[n+]2C)c2ccccc2N1c1ccccc1.[I-] [Compound 15] | 524 | 864 | 495
19 | CCC[N+](C)(C)CCCN(C)C1=C/C(=C/c2sc3ccccc3[n+]2C)c2ccccc2N1c1ccccc1.[I-].[I-] [Compound 24] | 522 | 630 | 497
20 | CCCN(CCC[N+](C)(C)Cc1cccc(OC)c1)C1=C/C(=C/c2sc3ccccc3[n+]2C)c2ccccc2N1c1ccccc1.[Br-].[Cl-] [Compound 7] | 522 | 978 | 502
21 | CC[N+](C)(C)CCCN(C)C1=C/C(=C/c2sc3ccccc3[n+]2C)c2ccccc2N1c1ccccc1.[I-].[I-] [Compound 23] | 524 | 622 | 498
22 | CCCN(CCC[N+](C)(C)CCC)C1=CC(=Cc2sc3ccccc3[n+]2C)c2ccc(OC)cc2N1c1ccccc1.[I-].[I-] [Compound 44] | 518 | 1101 | 494
23 | CCN(CCC[N+](C)(C)C)C1=C/C(=C/c2sc3ccccc3[n+]2C)c2ccccc2N1c1ccccc1.[I-].[I-] [Compound 16] | 523 | 863 | 496
24 | CCN(CC[N+](C)(C)CC)C1=C/C(=C/c2sc3ccccc3[n+]2C)c2ccc(OC)cc2N1c1ccccc1.[I-].[I-] [Compound 57] | 521 | 877 | 496
25 | CCN(CCC[N+](C)(C)Cc1ccccc1)C1=C/C(=C/c2sc3ccccc3[n+]2C)c2ccc(OC)cc2N1c1ccccc1.[Br-].[I-] [Compound 53] | 520 | 1011 | 490
26 | CN(CCC[N+](C)(C)Cc1ccccc1)C1=C/C(=C/c2sc3ccccc3[n+]2C)c2ccccc2N1c1ccccc1.[I-].[I-] [Compound 26] | 521 | 653 | 498
27 | C[n+]1c(/C=C2/C=C(n3cnc4ccccc43)N(c3ccccc3)c3ccccc32)sc2ccccc21.[Cl-] [Compound 63] | 543 | 42 | 518
